In publication PMC8820820, “Feasibility and safety of targeting mitochondria for cancer therapy – preclinical characterization of gamitrinib, a first-in-class, mitochondriaL-targeted small molecule Hsp90 inhibitor” (Cancer Biology & Therapy, 2022):

Key:
[1] = Gamitrinib pharmacokinetics in rat plasma, single IV dose; assay type: in vivo, Sprague-Dawley rats; conditions: after IV Gamitrinib 5 mg/kg
Method: Sprague-Dawley rats (n = 3) were administered with a single intravenous (IV) dose of 1 mL Gamitrinib (5 mg/kg) formulated as described above without added microfluidization. Blood samples were collected via lateral tail vein using K2EDTA as an anticoagulant at 0.083, 0.25, 0.5, 1, 2, 4, and 24 h post-dose, chilled on ice, and centrifuged at 5000 rpm for 10 min. Aliquots (0.2 mL) of each plasma sample were stored frozen at −20°C. For analysis, 50 µL aliquots of the study samples were mixed with 50 µL of ACN/H2O (50:50), extracted by protein precipitation using ACN containing the internal standard Gamitrinib-d15 (100 ng/mL), and the aliquots of the supernatant were mixed with deionized water for Gamitrinib determination. Batch samples under analysis included a calibration curve, a matrix blank (blank rat plasma), a reagent blank, a control zero (blank rat plasma spiked with internal standard), and duplicate QC samples at three concentration levels (low, medium, and high) in addition to the study samples. Within each batch, the study samples were bracketed by calibration standards or QC samples. The lowest calibration standard served to evaluate system suitability at the beginning of each batch. […] Overall, the concentration of Gamitrinib was measured in 21 rat plasma samples in 1 analytical batch using LC-MS/MS data acquisition on a Shimadzu Nexera LC system coupled with an AB Sciex Triple Quad 5500 mass spectrometer. Chromatograms were integrated using Analyst 1.6.2 software. A weighted (1/x^2, x = concentration) linear regression was used to generate the calibration curve for Gamitrinib. […] The mean, standard deviation, precision, accuracy, and assay variability were calculated using Microsoft Excel.

[2] = Bidirectional Caco2 cell monolayer permeability; conditions: human
Method: Caco-2 and HEK293 cells were obtained from the American Type Culture Collection (ATCC, Manassas, VA) and grown in culture according to the supplier’s specifications. In some experiments, HEK293 cells were stably transfected with hERG cDNA, and polyclonal cultures were maintained in the presence of 250 µg/ml geneticin (G418).
Bidirectional Caco2 cell monolayer permeability. Caco2 cells (2x10^4/well) were seeded onto apical chambers of a 24-multiwell insert plate and incubated at 37°C in 5% CO2. After 21 d, the transepithelial electrical resistance (TEER) in ohms was read for each insert well as a quality control for monolayer integrity (>900 ohms or 300 ohms cm^2). The cell monolayers were incubated with 400 µL transport buffer on the apical (A) and 1.2 mL on the basolateral (B) sides for 30 min. After preincubation, dosing solution was added to the apical (400 µL, A-to-B, donor) or basolateral sides (1.2 mL, B-to-A, donor) or receiving buffer to the apical (400 µL, B-to-A, receiver) or basolateral sides (1.2 mL, A-to-B, receiver) for 90 min at 37°C in 5% CO2. […] Papp’A>B (nm/s) was calculated with Equation 1.
Papp Efflux Ratio (ER) was calculated with Equation 2.
ER=Papp,B>APapp,A>BEquation 2: […]
Propranolol (high permeability marker, non-P-gp substate) and digoxin (P-gp substrate) were used as controls.

[3] = Phase I, cytochrome P450-mediated human liver microsome metabolism
[4] = in vitro; conditions: human
[5] = Caco-2, Papp Efflux Ratio (ER), Papp,B>A / Papp,A>B
[6] = Caco-2, Papp, A>B, Caco2 monolayer, apical to basolateral
[7] = Caco-2, Papp, B>A, Caco2 monolayer, basolateral to apical
[8] = Caco-2, Pexact Efflux Ratio, Caco2 monolayer
[9] = Caco-2, Pexact,A>B, Caco2 monolayer
[10] = Caco-2, Pexact,B>A, Caco2 monolayer

Which results are given for `CO[C@H]1/C=C\C=C(/C)C(=O)NC2=CC(=O)C(N)=C(C[C@@H](C)C[C@H](OC)[C@H](O)[C@@H](C)/C=C(\C)[C@@H]1OC(N)=O)C2=O` [17-AG, 17-(amino)-17-demethoxygeldanamycin]?
17-AG plasma concentration ([1]; animal 1, 5 min): BLOQ; 17-AG plasma concentration ([1]; animal 1, 15 min): 0.561 ng/mL; 17-AG plasma concentration ([1]; animal 1, 30 min): BLOQ; 17-AG plasma concentration ([1]; animal 1, 60 min): BLOQ; 17-AG plasma concentration ([1]; animal 1, 120 min): BLOQ; 17-AG plasma concentration ([1]; animal 1, 240 min): BLOQ; 17-AG plasma concentration ([1]; animal 1, 1440 min): BLOQ; 17-AG plasma concentration ([1]; animal 2, 5 min): 1.519 ng/mL; 17-AG plasma concentration ([1]; animal 2, 15 min): BLOQ; 17-AG plasma concentration ([1]; animal 2, 30 min): BLOQ; 17-AG plasma concentration ([1]; animal 2, 60 min): BLOQ; 17-AG plasma concentration ([1]; animal 2, 120 min): BLOQ; 17-AG plasma concentration ([1]; animal 2, 240 min): BLOQ; 17-AG plasma concentration ([1]; animal 2, 1440 min): BLOQ; 17-AG plasma concentration ([1]; animal 3, 5 min): 1.113 ng/mL; 17-AG plasma concentration ([1]; animal 3, 15 min): BLOQ; 17-AG plasma concentration ([1]; animal 3, 30 min): BLOQ; 17-AG plasma concentration ([1]; animal 3, 60 min): BLOQ; 17-AG plasma concentration ([1]; animal 3, 120 min): BLOQ; 17-AG plasma concentration ([1]; animal 3, 240 min): BLOQ; 17-AG plasma concentration ([1]; animal 3, 1440 min): BLOQ

With `C[C@H]1O[C@@H](O[C@H]2[C@@H](O)C[C@H](O[C@H]3[C@@H](O)C[C@H](O[C@H]4CC[C@@]5(C)[C@H](CC[C@@H]6[C@@H]5C[C@@H](O)[C@]5(C)[C@@H](C7=CC(=O)OC7)CC[C@]65O)C4)O[C@@H]3C)O[C@@H]2C)C[C@H](O)[C@@H]1O` [Digoxin] as the molecule, how does the efflux ratio at 90 min [2, 5] read?
Its efflux ratio at 90 min is 21.

What about the Papp A→B at 90 min [2, 6] of the same molecule?
Its Papp A→B at 90 min is 5.47 nm/s.

What about the Papp B→A at 90 min [2, 7] of the same molecule?
Its Papp B→A at 90 min is 115 nm/s.

What about the efflux ratio at 90 min [2, 8] of the same molecule?
The efflux ratio at 90 min was 21.2.

What about the Papp A→B at 90 min [2, 9] of the same molecule?
The Papp A→B at 90 min was 4.13 nm/s.

What about the Papp B→A at 90 min [2, 10] of the same molecule?
The Papp B→A at 90 min was 87.6 nm/s.

For `Cc1ncc2n1-c1ccc(Cl)cc1C(c1ccccc1F)=NC2` [Midazolam, reference compound], which “elimination rate constant (k)” value ([3]; 0.5 µM, human liver microsomes) is on record?
The value was 0.04.

What about the “intrinsic clearance (CLint)” value ([3]; 0.5 µM, human liver microsomes) of the same molecule?
Its value is 3.23 mL/min/g.

And the half-life at 0.5 µM ([3]; human, liver microsomes)?
Its half-life at 0.5 µM is 17 min.

For `CC(C)NCC(O)COc1cccc2ccccc12` (stereo not shown) [Propranolol], which efflux ratio at 90 min [2, 5] is on record?
The efflux ratio at 90 min was 0.87.

And the Papp A→B at 90 min [2, 6]?
The Papp A→B at 90 min was 186 nm/s.

And the Papp B→A at 90 min [2, 7]?
Its Papp B→A at 90 min is 162 nm/s.

What about the efflux ratio at 90 min [2, 8] of the same molecule?
The efflux ratio at 90 min was 0.81.

And the Papp A→B at 90 min [2, 9]?
Its Papp A→B at 90 min is 209 nm/s.

And the Papp B→A at 90 min [2, 10]?
The Papp B→A at 90 min was 170 nm/s.

With `CC(=O)CC(c1ccccc1)c1c(O)c2ccccc2oc1=O` (stereo not shown) [warfarin] as the molecule, how does the recovery at 4 h, 2 µg/mL [4] read?
Its recovery at 4 h, 2 µg/mL is 88.3 ± 2.9%.
